The target in the test is recombinant human HPK1 (Homo sapiens (Human), UniProt Q92918). Briefly: HPK1 kinase assay (ADP-Glo). It counts as biochemical. To be noted: 25 μM ATP, MBP substrate. In short, it runs like this: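 Activity was read as ADP formed, detected by ADP-Glo luminescence after the reaction of 5 ng recombinant human HPK1 with MBP and ATP (stocks 0.5 μg/μl and 25 μM) for 40 min at 30 °C. Buffer was Tris pH 7.5 with MgCl2, BSA and DTT, with compound in 0.5% DMSO. IC50 came from inhibition curves.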
Chain of recombinant human HPK1 (Q92918 whole entry): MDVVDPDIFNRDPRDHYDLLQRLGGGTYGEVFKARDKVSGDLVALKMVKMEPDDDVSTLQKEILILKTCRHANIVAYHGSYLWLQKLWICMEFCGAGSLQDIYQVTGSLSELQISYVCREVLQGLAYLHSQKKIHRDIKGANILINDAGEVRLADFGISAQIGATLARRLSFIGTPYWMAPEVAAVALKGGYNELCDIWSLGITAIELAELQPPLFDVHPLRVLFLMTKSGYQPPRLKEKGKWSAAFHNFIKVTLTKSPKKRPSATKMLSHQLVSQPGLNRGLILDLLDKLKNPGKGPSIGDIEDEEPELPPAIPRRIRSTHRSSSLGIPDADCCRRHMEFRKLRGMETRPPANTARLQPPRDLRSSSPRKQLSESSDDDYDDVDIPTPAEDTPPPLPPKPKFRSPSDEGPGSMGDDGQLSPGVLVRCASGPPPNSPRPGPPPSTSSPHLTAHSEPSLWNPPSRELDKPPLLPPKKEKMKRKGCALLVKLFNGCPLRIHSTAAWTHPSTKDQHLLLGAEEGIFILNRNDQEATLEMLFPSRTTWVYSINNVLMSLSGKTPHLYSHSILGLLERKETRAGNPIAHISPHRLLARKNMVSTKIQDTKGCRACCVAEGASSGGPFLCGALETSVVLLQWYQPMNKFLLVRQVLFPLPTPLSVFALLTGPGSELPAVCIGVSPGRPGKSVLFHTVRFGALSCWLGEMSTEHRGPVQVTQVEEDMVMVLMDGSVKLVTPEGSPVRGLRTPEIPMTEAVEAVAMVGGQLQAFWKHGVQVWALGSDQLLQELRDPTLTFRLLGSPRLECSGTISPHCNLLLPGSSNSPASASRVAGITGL
In the case of `COC(=O)c1c(F)c(Cl)c(-c2ccc3nc(NC(=O)[C@@H]4C[C@@H]4F)cn3c2)c2cn[nH]c12` [Example 315, methyl 5-chloro-6-fluoro-4-(2-((1S,2S)-2-fluorocyclopropane-1-carboxamido)imidazo[1,2-a]pyridin-6-yl)-1H-indazole-7-carboxylate], the IC50 was below 100 nM. For the molecule `CN(c1c(F)c(Cl)c(-c2ccn3nc(NC(=O)[C@@H]4C[C@@H]4F)cc3c2)c2cn[nH]c12)C1CCC1` [Example 620, (1S,2S)-N-(5-(5-chloro-7-(cyclobutyl(methyl)amino)-6-fluoro-1H-indazol-4-yl)pyrazolo[1,5-a]pyridin-2-yl)-2-fluorocyclopropane-1-carboxamide], the IC50 was below 100 nM. As for `O=C(Nc1cc2cc(-c3c(C4CC4)c(F)cc4[nH]ncc34)ccn2n1)[C@@H]1C[C@@H]1F` [Example 457, (1S,2S)-N-(5-(5-cyclopropyl-6-fluoro-1H-indazol-4-yl)pyrazolo[1,5-a]pyridin-2-yl)-2-fluorocyclopropane-1-carboxamide], the concentration for half-maximal inhibition (IC50) is below 100 nM. Under `CNCCN(C)c1c(F)c(Cl)c(-c2ccc3nc(NC(=O)[C@@H]4C[C@@H]4F)sc3c2)c2cn[nH]c12` [Example 92, (1S,2S)-N-(6-(5-chloro-6-fluoro-7-(methyl(2-(methylamino)ethyl)amino)-1H-indazol-4-yl)benzo[d]thiazol-2-yl)-2-fluorocyclopropane-1-carboxamide] stands below 100 nM; under `CCOc1c(F)c(SC)c(-c2ccc3nc(NC(=O)[C@@H]4C[C@@H]4F)cn3c2)c2cn[nH]c12` [Example 310, (1S,2S)-N-(6-(7-ethoxy-6-fluoro-5-(methylthio)-1H-indazol-4-yl)imidazo[1,2-a]pyridin-2-yl)-2-fluorocyclopropane-1-carboxamide], below 100 nM. Under `CNC(=O)N(C)c1c(F)c(Cl)c(-c2ccn3nc(NC(=O)[C@@H]4C[C@@H]4F)cc3c2)c2cn[nH]c12` [Example 664, (1S,2S)-N-(5-(5-chloro-7-(1,3-dimethylureido)-6-fluoro-1H-indazol-4-yl)pyrazolo[1,5-a]pyridin-2-yl)-2-fluorocyclopropane-1-carboxamide] stands below 100 nM; under `Cc1c(F)cc2[nH]ncc2c1-c1ccc2nc(NC(=O)[C@@H]3C[C@@H]3F)sc2c1` [Example 40, (1S,2S)-2-fluoro-N-(6-(6-fluoro-5-methyl-1H-indazol-4-yl)benzo[d]thiazol-2-yl)cyclopropane-1-carboxamide], below 100 nM; under `O=C(Nc1cn2cc(-c3c(C(F)F)c(F)cc4[nH]ncc34)ccc2n1)C1CC1` [Example 255, N-(6-(5-(difluoromethyl)-6-fluoro-1H-indazol-4-yl)imidazo[1,2-a]pyridin-2-yl)cyclopropanecarboxamide], below 100 nM. Next, `COc1c(F)cc2[nH]ncc2c1-c1ccn2nc(NC(=O)[C@@H]3C[C@@H]3F)cc2c1` [Example 467, (1S,2S)-2-fluoro-N-(5-(6-fluoro-5-methoxy-1H-indazol-4-yl)pyrazolo[1,5-a]pyridin-2-yl)cyclopropane-1-carboxamide]: below 100 nM; `O=C(Nc1cc2cc(-c3c(Cl)c(F)c(C4CCCC4)c4[nH]ncc34)ccn2n1)[C@@H]1C[C@@H]1F` [Example 651, (1S,2S)-N-(5-(5-chloro-7-cyclopentyl-6-fluoro-1H-indazol-4-yl)pyrazolo[1,5-a]pyridin-2-yl)-2-fluorocyclopropane-1-carboxamide]: below 100 nM; `O=C(Nc1cn2cc(-c3c(Cl)c(F)cc4[nH]ncc34)ccc2n1)[C@@H]1C[C@@H]1F` [Example 243, (1S,2S)-N-(6-(5-chloro-6-fluoro-1H-indazol-4-yl)imidazo[1,2-a]pyridin-2-yl)-2-fluorocyclopropane-1-carboxamide]: below 100 nM. In the case of `CP(C)(=O)c1c(F)c(Cl)c(-c2ccc3nc(NC(=O)[C@@H]4C[C@@H]4F)sc3c2)c2cn[nH]c12` [Example 60, (1S,2S)-N-(6-(5-chloro-7-(dimethylphosphoryl)-6-fluoro-1H-indazol-4-yl)benzo[d]thiazol-2-yl)-2-fluorocyclopropane-1-carboxamide], the IC50 was above 1000 nM. Next, `CC1(F)CN(c2c(F)c(Cl)c(-c3ccn4nc(NC(=O)[C@@H]5C[C@@H]5F)cc4c3)c3cn[nH]c23)C1` [Example 632, (1S,2S)-N-(5-(5-chloro-6-fluoro-7-(3-fluoro-3-methylazetidin-1-yl)-1H-indazol-4-yl)pyrazolo[1,5-a]pyridin-2-yl)-2-fluorocyclopropane-1-carboxamide]: below 100 nM; `O=C(Nc1nc2ccc(-c3c(Br)c(F)cc4[nH]ncc34)nc2s1)[C@@H]1C[C@@H]1F` [Example 160, (1S,2S)-N-(5-(5-bromo-6-fluoro-1H-indazol-4-yl)thiazolo[5,4-b]pyridin-2-yl)-2-fluorocyclopropane-1-carboxamide]: below 100 nM. On to `CSc1c(F)c(F)c2[nH]ncc2c1-c1ccc2nc(NC(=O)[C@@H]3C[C@@H]3F)sc2c1` [Example 117, (1S,2S)-N-(6-(6,7-difluoro-5-(methylthio)-1H-indazol-4-yl)benzo[d]thiazol-2-yl)-2-fluorocyclopropane-1-carboxamide 2,2,2-trifluoroacetate], for which the IC50 was below 100 nM.

As to `CCc1c(F)c(SC2(C#N)CC2)c2[nH]ncc2c1-c1ccn2nc(NC(=O)[C@@H]3C[C@@H]3F)cc2c1` [Example 608, (1S,2S)-N-(5-(7-((1-cyanocyclopropyl)thio)-5-ethyl-6-fluoro-1H-indazol-4-yl)pyrazolo[1,5-a]pyridin-2-yl)-2-fluorocyclopropane-1-carboxamide], the IC50 is below 100 nM. Next, `COc1c(F)c(Cl)c(-c2ccn3nc(NC(=O)[C@@H]4C[C@@H]4F)cc3c2)c2cn[nH]c12` [Example 492, (1S,2S)-N-(5-(5-chloro-6-fluoro-7-methoxy-1H-indazol-4-yl)pyrazolo[1,5-a]pyridin-2-yl)-2-fluorocyclopropane-1-carboxamide]: below 100 nM; `COc1c(F)c(C)c(-c2ccc3nc(NC(=O)[C@@H]4C[C@@H]4F)sc3c2)c2cn[nH]c12` [Example 97, (1S,2S)-2-fluoro-N-(6-(6-fluoro-7-methoxy-5-methyl-1H-indazol-4-yl)benzo[d]thiazol-2-yl)cyclopropanecarboxamide]: below 100 nM; `CN(Nc1c(F)c(Cl)c(-c2ccc3nc(NC(=O)[C@@H]4C[C@@H]4F)sc3c2)c2cn[nH]c12)C(=O)OC(C)(C)C` [Example 114, tert-butyl 2-(5-chloro-6-fluoro-4-(2-((1S,2S)-2-fluorocyclopropane-1-carboxamido)benzo[d]thiazol-6-yl)-1H-indazol-7-yl)-1-methylhydrazine-1-carboxylate]: 101 to 500 nM. `O=C(Nc1cc2cc(-c3c(Cl)c(F)c(-n4cccc4)c4[nH]ncc34)ccn2n1)[C@@H]1C[C@@H]1F` [Example 637, (1S,2S)-N-(5-(5-chloro-6-fluoro-7-(1H-pyrrol-1-yl)-1H-indazol-4-yl)pyrazolo[1,5-a]pyridin-2-yl)-2-fluorocyclopropane-1-carboxamide]: the half-maximal inhibitory concentration (IC50) is below 100 nM. Under `CC(=O)Nc1c(F)c(Cl)c(-c2ccc3nc(NC(=O)[C@@H]4C[C@@H]4F)cn3c2)c2cn[nH]c12` [Example 301] stands below 100 nM.

Usually IC50 stands for the concentration that gives 50% inhibition.

The record behind these values is patent publication US11649255B2, “Indazoles as hematopoietic progenitor kinase 1 (HPK1) inhibitors and methods using same” (1st Biotherapeutics, Inc., priority 2020, dated 2023).
